Test results published in paper PMC2361324, “Phase 1 trial of the antiangiogenic peptide ATN-161 (Ac-PHSCN-NH2), a beta integrin antagonist, in patients with solid tumours” (British Journal of Cancer, 2006).

Experiments:
[1] = Toxicity / adverse events in phase 1 trial (NCI CTC v2.0); type: in vivo, human; settings: for Number of patients with ATN-161-associated adverse events: possible, probable or definite relationship
Procedure: ATN-161 was administered as a 10-min infusion, three times per week. Sequential cohorts of three patients were enrolled to eight different dose levels (0.1, 0.25, 0.5, 1.0, 2.0, 4.0, 8.0 and 16.0 mg kg^−1). All patients in a given dose level were evaluated for at least 28 days before patients could be treated at the next higher dose level. Patients receiving therapy for <1 cycle (4 weeks) were to be replaced unless they had experienced a DLT. Toxicity was evaluated according to the NCI Common Terminology Criteria (CTC) Version 2.0. Dose-limiting toxicities were defined as any of the following treatment-related events occurring during the first cycle of therapy: Grade 4 neutropenia or febrile neutropenia, any other Grade 3 or greater nonhaematologic toxicity, or any toxicity requiring ATN-161 to be held for more than 1 week (i.e., three consecutive missed doses). In the event of DLT, dosing was to be held until recovery to at least Grade 1 toxicity and a new dosing cycle for that patient was to be initiated at the investigator's discretion at 50% of the previous dose. […] In the event of Grade 2 toxicity involving vital organs (hepatic, pulmonary, renal, neurologic, gastrointestinal or cardiotoxicity), the dose of ATN-161 was to be held until recovery to Grade 0–1 before a new cycle was initiated at 100% dosing. If the Grade 2 toxicity recurred, dosing was to be held until recovery to Grade 0–1 and the next cycle would resume at 50%. Occurrence of DLT at a given dose level would require further enrolment of up to six patients at that dose level to determine if the MTD had been exceeded. The MTD was defined as one dose level below which ⩾2/6 patients experienced a DLT. Treatment could continue until progressive disease, or one of the following: unacceptable toxicity, intercurrent illness, patient declined further treatment, or physician decision in view of a patient's other medical conditions.
(§1) During treatment, patients were evaluated monthly with physical examinations including toxicity assessment using the CTC, ECOG PS, serum chemistry, haematology and coagulation testing. Tumour burden was reassessed every two cycles (8 weeks) by physical exam or radiological methods as appropriate using RECIST ([Therasse et al, 2000]).
No inferential analyses were performed. Data are presented in a descriptive fashion. Treatment-emergent adverse events were translated from investigator terms to MedDRA terminology and summarised within and across dose levels for all patients who received at least one dose of ATN-161. Treatment administration is described for all patients, including drug/dose administration, number of cycles, dose modifications or delays and duration of therapy.

advanced solid tumours = assay: Clinical response by RECIST in phase 1 trial; type: in vivo, human
Procedure: as §1

[2] = Serological antibody immune response against ATN-161 in patients; type: in vivo, human
[3] = system: DU145 prostate cancer cell line; settings: in vitro, human DU145 prostate cancer cell line; ref Livant et al, 2000b; cited from earlier work
Text: (§2) In vitro, ATN-161 inhibited PHSRN-induced basement membrane invasion of human (DU145) and rat (MLL) prostate cancer cell lines ([Livant et al, 2000b]).

[4] = system: MLL prostate cancer cell line; settings: in vitro, rat MLL prostate cancer cell line; ref Livant et al, 2000b; cited from earlier work
Text: as §2

MLL cells = settings: attempts to show induction; ref Livant et al, 2000b; cited from earlier work
integrin beta subunits = settings: ref Donate et al, 2003; cited from earlier work
Text: (§3) ATN-161 is a noncompetitive inhibitor of the fibronectin PHSRN sequence, in which a cysteine residue has been substituted for arginine along with peptide acetylation and amidation in order to yield a product with acceptable pharmaceutical properties (Ac-PHSCN-NH2). […] Thus, ATN-16 ...

[5] = system: integrin-dependent adhesion; settings: ref Plunkett and Mazar, 2002, Plunkett et al; cited from earlier work
Text: as §3

[6] = Plasma pharmacokinetics in phase 1 trial; settings: human, iv; for Vd: patients, Day 1, HPLC-MS/MS, noncompartmental, cohort mean
Procedure: Blood samples for PK analysis were collected in EDTA-coated tubes on Day 1 for all patients preinfusion, at the end of infusion, and at 5, 10, 15, 30, 45, 60, 90, 120, 150, 180, 240, 400, 460 and 520 min after infusion. Samples were immediately centrifuged, and the plasma was separated and stored at −20°C prior to analysis.
Pharmacokinetic data were modelled using a noncompartmental approach to estimate individual subject values for the following parameters: maximum observed concentration (Cmax), time of the maximum observed concentration (Tmax), volume of distribution at steady state (VSS), terminal elimination half-life (t1/2), total systemic clearance (CL), area under the plasma concentration-time curve (AUC), and CLr. For these parameters the mean and s.d. coefficient of variation were calculated.
Descriptive PKs parameters were determined by standard model independent methods for infusion administration ([Perrier and Gibaldi, 1982]) from plasma concentrations in each individual patient. Plasma and urine concentrations were rounded to the nearest [drawing 1] ng ml^−1 before the calculations. Plasma samples with concentrations below the quantifiable limit of 50.0 ng ml^−1 (BQL) were assigned values of zero for generation of mean and s.d. plasma concentrations. For PKs calculations, BQL was treated as zero up to the first quantifiable plasma concentration and then treated as an empty value thereafter. Urine samples reported as BQL (⩽50.0 ng ml^−1) were treated as zero for all calculations. Actual patient blood collection sampling times relative to the start of infusion were used for PKs calculations; however, scheduled collection times were used for urinary excretion data and graphical presentations of all data.

[7] = dose level 0.5 mg kg^−1, ATN-161-associated, any course
[8] = dose level 1.0 mg kg^−1, ATN-161-associated, any course
[9] = dose level 2.0 mg kg^−1, ATN-161-associated, any course
[10] = dose level 4.0 mg kg^−1, ATN-161-associated, any course

**Q.** With Ac-PHSCN-NH2 [ATN-161, Ac-PHSCN-NH2] as the substance, how does the “Number of patients with Muscle cramps” value [1, 7] read?
**A.** 1

**Q.** What about the “Number of patients with Sweating increased” value [1, 7] of the same substance?
**A.** 1

**Q.** What about the “Number of patients with ATN-161-associated adverse events” value ([1]; dose level 0.5 mg kg^−1, any course) of the same substance?
**A.** 1

**Q.** And the “Number of patients with Cellulitis” value [1, 8]?
**A.** 1

**Q.** What about the “Number of patients with Dry mouth” value [1, 8] of the same substance?
**A.** 1

**Q.** And the “Number of patients with Pain in limb” value [1, 8]?
**A.** 1

**Q.** And the “Number of patients with Paresthesia” value [1, 8]?
**A.** 1

**Q.** And the “Number of patients with Phlebitis not otherwise specified (NOS)” value [1, 8]?
**A.** 1

**Q.** And the “Number of patients with ATN-161-associated adverse events” value ([1]; dose level 1.0 mg kg^−1, any course)?
**A.** 1

**Q.** And the “Number of patients with Anemia NOS” value [1, 9]?
**A.** 1

**Q.** And the “Number of patients with Hypotension NOS” value [1, 9]?
**A.** 1

**Q.** What about the “Number of patients with Oral candidiasis” value [1, 9] of the same substance?
**A.** 1

**Q.** And the “Number of patients with ATN-161-associated adverse events” value ([1]; dose level 2.0 mg kg^−1, any course)?
**A.** 2

**Q.** And the “Number of patients with Constipation” value [1, 10]?
**A.** 1

**Q.** And the “Number of patients with Fatigue” value [1, 10]?
**A.** 1

**Q.** What about the “Number of patients with Nausea” value [1, 10] of the same substance?
**A.** 2

**Q.** And the “Number of patients with ATN-161-associated adverse events” value ([1]; dose level 4.0 mg kg^−1, any course)?
**A.** 2

**Q.** And the “Number of patients with Nausea” value ([1]; dose level 8.0 mg kg^−1, ATN-161-associated, any course)?
**A.** 1

**Q.** And the “Number of patients with ATN-161-associated adverse events” value ([1]; dose level 8.0 mg kg^−1, any course)?
**A.** 1

**Q.** What about the “Number of patients with Hypotension NOS” value ([1]; dose level 16.0 mg kg^−1, ATN-161-associated, any course) of the same substance?
**A.** 1

**Q.** And the “Number of patients with ATN-161-associated adverse events” value ([1]; dose level 16.0 mg kg^−1, any course)?
**A.** 1

**Q.** What about the “Dose-limiting toxicities (DLTs)” value ([1]; patients, 0.1-16 mg kg^−1 thrice weekly i.v., 26 patients) of the same substance?
**A.** no DLTs occurred

**Q.** And the “MTD (maximum tolerated dose)” value ([1]; patients, 10-min i.v. infusion three times per week, not reached, 16 mg kg^−1 designated maximum administered dose)?
**A.** > 16 mg/kg

**Q.** What about the “Objective response as defined by RECIST” value (advanced solid tumours; 26 patients, 0.1-16 mg kg^−1 thrice weekly i.v.) of the same substance?
**A.** No patient in the study had an objective response

**Q.** And the “Fraction of patients with prolonged stable disease” value (advanced solid tumours; patients in the study, all dose levels)?
**A.** 1/3

**Q.** And the “Patients with stable disease of >4 months” value (advanced solid tumours; six of the 26 treated patients, 0.1-16 mg kg^−1 thrice weekly i.v.)?
**A.** 23%

**Q.** And the “Antibody immune response against ATN-161” value [2]?
**A.** no serological evidence

**Q.** What about the “PHSRN-induced basement membrane invasion” value [3] of the same substance?
**A.** inhibited

**Q.** And the “PHSRN-induced basement membrane invasion” value [4]?
**A.** inhibited

**Q.** What about the “Induction of apoptosis in MLL cells” value (MLL cells) of the same substance?
**A.** unsuccessful

**Q.** What about the “Binding to integrin subunits” value (integrin beta subunits) of the same substance?
**A.** binds exclusively to integrin beta subunits

**Q.** And the “Block of integrin-dependent adhesion” value [5]?
**A.** does not block

**Q.** And the AUC(0-t) ([6]; 0.25 mg/kg)?
**A.** 3420 ng·h/mL

**Q.** And the Cmax ([6]; 0.25 mg/kg)?
**A.** 1120 ng/mL

**Q.** What about the MRT ([6]; 0.25 mg/kg) of the same substance?
**A.** 5.5 h

**Q.** And the clearance ([6]; 0.25 mg/kg)?
**A.** 1.33 mL/min/kg

**Q.** And the half-life ([6]; 0.25 mg/kg)?
**A.** 4.4 h

**Q.** And the Vd ([6]; 0.25 mg/kg, Vd (volume of distribution), 0.25 mg kg^−1 10-min i.v. infusion)?
**A.** 0.48 L/kg

**Q.** And the Vd ([6]; 0.25 mg/kg, Vss (volume of distribution at steady state), 0.25 mg kg^−1 10-min i.v. infusion)?
**A.** 0.33 L/kg

**Q.** And the AUC(0-t) ([6]; 0.5 mg/kg)?
**A.** 3610 ng·h/mL

**Q.** And the Cmax ([6]; 0.5 mg/kg)?
**A.** 5790 ng/mL

**Q.** What about the MRT ([6]; 0.5 mg/kg) of the same substance?
**A.** 3.3 h

**Q.** And the clearance ([6]; 0.5 mg/kg)?
**A.** 2.83 mL/min/kg

**Q.** And the half-life ([6]; 0.5 mg/kg)?
**A.** 3.2 h

**Q.** And the Vd ([6]; 0.5 mg/kg, Vd (volume of distribution), 0.5 mg kg^−1 10-min i.v. infusion)?
**A.** 0.87 L/kg

**Q.** And the Vd ([6]; 0.5 mg/kg, Vss (volume of distribution at steady state), 0.5 mg kg^−1 10-min i.v. infusion)?
**A.** 0.47 L/kg

**Q.** And the AUC(0-t) ([6]; 1 mg/kg)?
**A.** 1450 ng·h/mL

**Q.** And the Cmax ([6]; 1 mg/kg)?
**A.** 3800 ng/mL

**Q.** And the MRT ([6]; 1 mg/kg)?
**A.** 3.8 h

**Q.** What about the clearance ([6]; 1 mg/kg) of the same substance?
**A.** 10.2 mL/min/kg

**Q.** And the half-life ([6]; 1 mg/kg)?
**A.** 3.9 h

**Q.** What about the Vd ([6]; 1 mg/kg, Vd (volume of distribution), 1 mg kg^−1 10-min i.v. infusion) of the same substance?
**A.** 3.38 L/kg

**Q.** And the Vd ([6]; 1 mg/kg, Vss (volume of distribution at steady state), 1 mg kg^−1 10-min i.v. infusion)?
**A.** 2.3 L/kg

**Q.** And the AUC(0-t) ([6]; 2 mg/kg)?
**A.** 3320 ng·h/mL

**Q.** What about the Cmax ([6]; 2 mg/kg) of the same substance?
**A.** 15700 ng/mL

**Q.** What about the MRT ([6]; 2 mg/kg) of the same substance?
**A.** 2.5 h

**Q.** What about the clearance ([6]; 2 mg/kg) of the same substance?
**A.** 11.5 mL/min/kg

**Q.** What about the half-life ([6]; 2 mg/kg) of the same substance?
**A.** 3.5 h

**Q.** And the Vd ([6]; 2 mg/kg, Vd (volume of distribution), 2 mg kg^−1 10-min i.v. infusion)?
**A.** 3.38 L/kg

**Q.** And the Vd ([6]; 2 mg/kg, Vss (volume of distribution at steady state), 2 mg kg^−1 10-min i.v. infusion)?
**A.** 1.93 L/kg

**Q.** And the AUC(0-t) ([6]; 4 mg/kg)?
**A.** 3710 ng·h/mL

**Q.** And the Cmax ([6]; 4 mg/kg)?
**A.** 5480 ng/mL

**Q.** And the MRT ([6]; 4 mg/kg)?
**A.** 4.8 h

**Q.** And the clearance ([6]; 4 mg/kg)?
**A.** 14.5 mL/min/kg

**Q.** What about the half-life ([6]; 4 mg/kg) of the same substance?
**A.** 4.3 h

**Q.** And the Vd ([6]; 4 mg/kg, Vd (volume of distribution), 4 mg kg^−1 10-min i.v. infusion)?
**A.** 5.59 L/kg

**Q.** And the Vd ([6]; 4 mg/kg, Vss (volume of distribution at steady state), 4 mg kg^−1 10-min i.v. infusion)?
**A.** 3.82 L/kg

**Q.** What about the AUC(0-t) ([6]; 8 mg/kg) of the same substance?
**A.** 34200 ng·h/mL

**Q.** And the Cmax ([6]; 8 mg/kg)?
**A.** 34400 ng/mL

**Q.** What about the MRT ([6]; 8 mg/kg) of the same substance?
**A.** 3.4 h

**Q.** And the clearance ([6]; 8 mg/kg)?
**A.** 7 mL/min/kg

**Q.** What about the half-life ([6]; 8 mg/kg) of the same substance?
**A.** 3.3 h

**Q.** What about the Vd ([6]; 8 mg/kg, Vd (volume of distribution), 8 mg kg^−1 10-min i.v. infusion) of the same substance?
**A.** 2.14 L/kg

**Q.** What about the Vd ([6]; 8 mg/kg, Vss (volume of distribution at steady state), 8 mg kg^−1 10-min i.v. infusion) of the same substance?
**A.** 1.32 L/kg

**Q.** And the AUC(0-t) ([6]; 16 mg/kg)?
**A.** 54900 ng·h/mL

**Q.** And the Cmax ([6]; 16 mg/kg)?
**A.** 72700 ng/mL

**Q.** What about the MRT ([6]; 16 mg/kg) of the same substance?
**A.** 5.3 h

**Q.** What about the clearance ([6]; 16 mg/kg) of the same substance?
**A.** 5.83 mL/min/kg

**Q.** What about the half-life ([6]; 16 mg/kg) of the same substance?
**A.** 5 h

**Q.** What about the Vd ([6]; 16 mg/kg, Vd (volume of distribution), 16 mg kg^−1 10-min i.v. infusion) of the same substance?
**A.** 2.36 L/kg

**Q.** What about the Vd ([6]; 16 mg/kg, Vss (volume of distribution at steady state), 16 mg kg^−1 10-min i.v. infusion) of the same substance?
**A.** 1.61 L/kg
